From patent US20080063628A1, “METHODS TO PROMOTE CELL DIFFERENTIATION” (priority 2006, published 2008)

Columns and labels:
Test in all cases: Single trichostatin A dose, 144 h follow-up, gene expression by RT-PCR (Example 6)
Format in all cases: cell-based, human
[1] = tested on: amniotic fluid-derived cell line; conditions: 500 nM once at 0 h
Experimental: (§1) Several cell lines obtained from different amniotic fluid specimens (see Example 14) and pancreas donors (see Example 13) were tested with similar results. Two lines at similar passage number but derived from different amniotic fluid specimens are shown in Table VI-A and Table VI-B for this example. One of these cell lines was also used in examples 2 and 4 above. In addition, this example also contains comparison data in Table VI-C and Table VI-D for a single pancreatic-derived stromal line grown to early and late passage number.
(§2) Amniotic fluid derived cells or pancreatic-derived stromal cells were seeded into 24-well tissue culture plates at a density of 5000/cm^2 and cultured in AMNIOMAX (Invitrogen) or DMEM with 10% FBS, respectively, under standard cell culture conditions until confluent. After the cells reached confluency, amniotic fluid derived cells were treated once at time 0 hours with 500 nM trichostatin A. Pancreas-derived stromal cells were treated once at time 0 hours with 1.25 μM trichostatin A. Samples for RT-PCR were taken daily from zero to six days at the times indicated in Table VI.
(§3) RNA samples were obtained from the treated cultures up to 144 hours after the initial addition of trichostatin A or DMSO. Culture media was removed, the cells were washed with PBS, and RLT lysis buffer containing β-mercaptoethanol (Qiagen) was added. During culture, the medium was not changed nor was freshly prepared trichostatin A added. RNA was purified using the RNeasy Mini Kit (Qiagen), and RNA quantity and quality was determined using a spectrophotometer. cDNA was made using the iScript cDNA synthesis kit (BioRad).
(§4) Samples of 20 ng cDNA were used in each reaction to determine the expression levels of the following genes in amniotic fluid-derived cells: Gata1, HNF-3 beta, Pdx-1, insulin, and Sox17. Similarly, samples of 20 ng cDNA were used in each reaction to determine the expression level of the following genes in pancreatic-derived stromal cells: glucagon, HNF-3 beta, insulin and Pdx-1. Real-Time PCR was performed on the Applied Biosystems 7500, and data was analyzed using the accompanying software according to the methods described in Example 15.
(§5) Real-time PCR amplifcation and quantitative analysis. Unless otherwise stated, all reagents were purchased from Applied Biosystems. Real-time PCR reactions were performed using the ABI PRISM™ 7500 Sequence Detection System. TAQMAN™ FAST UNIVERSAL PCR MASTER MIX™ (ABI, CA) was used with 20 ng of reverse transcribed RNA in a total reaction volume of 20 μl. Each cDNA sample was run in duplicate to allow correction of pipetting errors. Primers and FAM-labeled TAQMAN™ probes were used at concentrations of 200 nM. The level of expression for each target gene was normalized using the pre-developed Applied Biosystem's human glyceraldehyde-3-phosphate dehydrogenase (GAPDH) endogenous control kit. Primers and probes were designed using either ABI PRISM PRIMER EXPRESS™ software or a pre-developed ABI gene analysis kit. For each gene, either one of the primers or the probe were designed to be exon-boundary spanning. This eliminated the possibility of the primers/probe binding to any genomic DNA present. The primer and probe sets are listed as follows: Pdx-1 (Hs00426216), Insulin (Hs00355773), glucagon (Hs00174967), and FoxA2 (HNF 3-beta) (Hs00232764). The remaining primers were designed using the PRIMERS program (ABI, CA). After an initial 95° C. incubation for 20 sec, samples were cycled 40 times in two stages: a denaturation step at 95° C. for 3 sec, followed by an annealing/extension step at 60° C. for 30 sec.
(§6) For each primer/probe set, a cycle time value was determined as the cycle number at which the fluorescence intensity of the PCR reaction reached a specific value in the middle of the exponential region of amplification. An increase in expression of a gene corresponded to a decrease in the number of cycles required for the fluorescence intensity to reach this value.

[2] = tested on: late passage (P14) pancreatic-derived stromal cell line; conditions: 1.25 μM once at 0 h
Experimental: as §1, §2, §3, §4, §5, §6

[3] = tested on: second amniotic fluid-derived cell line; conditions: 500 nM once at 0 h
Experimental: as §1, §2, §3, §4, §5, §6

CC(/C=C/C(=O)NO)=C\[C@@H](C)C(=O)c1ccc(N(C)C)cc1 [trichostatin A]
Gata1 gene expression ([1]; 24 hrs): nd (not detectable at >40 cycles by RT-PCR)
HNF (HNF-3 beta) gene expression ([1]; 24 hrs): +++ (detectable at less than 35 cycles by RT-PCR with SE less than 0.9)
Insulin gene expression ([1]; 24 hrs): nd (not detectable at >40 cycles by RT-PCR)
Pdx-1 gene expression ([1]; 24 hrs): + (detectable between 35 cycles and 40 cycles by RT-PCR)
sox17 gene expression ([1]; 24 hrs): +++ (detectable at less than 35 cycles by RT-PCR with SE less than 0.9)
Gata1 gene expression ([1]; 48 hrs): nd (not detectable at >40 cycles by RT-PCR)
HNF (HNF-3 beta) gene expression ([1]; 48 hrs): +++ (detectable at less than 35 cycles by RT-PCR with SE less than 0.9)
Insulin gene expression ([1]; 48 hrs): nd (not detectable at >40 cycles by RT-PCR)
Pdx-1 gene expression ([1]; 48 hrs): nd (not detectable at >40 cycles by RT-PCR)
sox17 gene expression ([1]; 48 hrs): +++ (detectable at less than 35 cycles by RT-PCR with SE less than 0.9)
Gata1 gene expression ([1]; 72 hrs): nd (not detectable at >40 cycles by RT-PCR)
HNF (HNF-3 beta) gene expression ([1]; 72 hrs): + (detectable between 35 cycles and 40 cycles by RT-PCR)
Insulin gene expression ([1]; 72 hrs): + (detectable between 35 cycles and 40 cycles by RT-PCR)
Pdx-1 gene expression ([1]; 72 hrs): nd (not detectable at >40 cycles by RT-PCR)
sox17 gene expression ([1]; 72 hrs): +++ (detectable at less than 35 cycles by RT-PCR with SE less than 0.9)
Gata1 gene expression ([1]; 96 hrs): nd (not detectable at >40 cycles by RT-PCR)
HNF (HNF-3 beta) gene expression ([1]; 96 hrs): nd (not detectable at >40 cycles by RT-PCR)
Insulin gene expression ([1]; 96 hrs): + (detectable between 35 cycles and 40 cycles by RT-PCR)
Pdx-1 gene expression ([1]; 96 hrs): nd (not detectable at >40 cycles by RT-PCR)
sox17 gene expression ([1]; 96 hrs): +++ (detectable at less than 35 cycles by RT-PCR with SE less than 0.9)
Gata1 gene expression ([1]; 120 hrs): nd (not detectable at >40 cycles by RT-PCR)
HNF (HNF-3 beta) gene expression ([1]; 120 hrs): + (detectable between 35 cycles and 40 cycles by RT-PCR)
Insulin gene expression ([1]; 120 hrs): + (detectable between 35 cycles and 40 cycles by RT-PCR)
Pdx-1 gene expression ([1]; 120 hrs): nd (not detectable at >40 cycles by RT-PCR)
sox17 gene expression ([1]; 120 hrs): +++ (detectable at less than 35 cycles by RT-PCR with SE less than 0.9)
Gata1 gene expression ([1]; 144 hrs): nd (not detectable at >40 cycles by RT-PCR)
HNF (HNF-3 beta) gene expression ([1]; 144 hrs): nd (not detectable at >40 cycles by RT-PCR)
Insulin gene expression ([1]; 144 hrs): + (detectable between 35 cycles and 40 cycles by RT-PCR)
Pdx-1 gene expression ([1]; 144 hrs): nd (not detectable at >40 cycles by RT-PCR)
sox17 gene expression ([1]; 144 hrs): +++ (detectable at less than 35 cycles by RT-PCR with SE less than 0.9)
HNF (HNF-3 beta) gene expression ([2]; 24 hrs): + (detectable between 35 and 40 cycles RT-PCR)
Insulin gene expression ([2]; 24 hrs): nd (not detectable at >40 cycles by RT-PCR)
Pdx-1 gene expression ([2]; 24 hrs): +++ (detectable at less than 35 cycles RT-PCR with SE less than 0.9)
glucagon gene expression ([2]; 24 hrs): +++ (detectable at less than 35 cycles RT-PCR with SE less than 0.9)
HNF (HNF-3 beta) gene expression ([2]; 48 hrs): nd (not detectable at >40 cycles by RT-PCR)
Insulin gene expression ([2]; 48 hrs): nd (not detectable at >40 cycles by RT-PCR)
Pdx-1 gene expression ([2]; 48 hrs): nd (not detectable at >40 cycles by RT-PCR)
glucagon gene expression ([2]; 48 hrs): + (detectable between 35 and 40 cycles RT-PCR)
HNF (HNF-3 beta) gene expression ([2]; 72 hrs): nd (not detectable at >40 cycles by RT-PCR)
Insulin gene expression ([2]; 72 hrs): nd (not detectable at >40 cycles by RT-PCR)
Pdx-1 gene expression ([2]; 72 hrs): nd (not detectable at >40 cycles by RT-PCR)
glucagon gene expression ([2]; 72 hrs): nd (not detectable at >40 cycles by RT-PCR)
HNF (HNF-3 beta) gene expression ([2]; 96 hrs): nd (not detectable at >40 cycles by RT-PCR)
Insulin gene expression ([2]; 96 hrs): nd (not detectable at >40 cycles by RT-PCR)
Pdx-1 gene expression ([2]; 96 hrs): nd (not detectable at >40 cycles by RT-PCR)
glucagon gene expression ([2]; 96 hrs): nd (not detectable at >40 cycles by RT-PCR)
HNF (HNF-3 beta) gene expression ([2]; 120 hrs): nd (not detectable at >40 cycles by RT-PCR)
Insulin gene expression ([2]; 120 hrs): nd (not detectable at >40 cycles by RT-PCR)
Pdx-1 gene expression ([2]; 120 hrs): nd (not detectable at >40 cycles by RT-PCR)
glucagon gene expression ([2]; 120 hrs): nd (not detectable at >40 cycles by RT-PCR)
HNF (HNF-3 beta) gene expression ([2]; 144 hrs): nd (not detectable at >40 cycles by RT-PCR)
Insulin gene expression ([2]; 144 hrs): nd (not detectable at >40 cycles by RT-PCR)
Pdx-1 gene expression ([2]; 144 hrs): nd (not detectable at >40 cycles by RT-PCR)
glucagon gene expression ([2]; 144 hrs): nd (not detectable at >40 cycles by RT-PCR)
Gata1 gene expression ([3]; 24 hrs): nd (not detectable at >40 cycles by RT-PCR)
HNF (HNF-3 beta) gene expression ([3]; 24 hrs): +++ (detectable at less than 35 cycles by RT-PCR with SE less than 0.9)
Insulin gene expression ([3]; 24 hrs): nd (not detectable at >40 cycles by RT-PCR)
Pdx-1 gene expression ([3]; 24 hrs): + (detectable between 35 and 40 cycles by RT-PCR)
sox17 gene expression ([3]; 24 hrs): +++ (detectable at less than 35 cycles by RT-PCR with SE less than 0.9)
Gata1 gene expression ([3]; 48 hrs): nd (not detectable at >40 cycles by RT-PCR)
HNF (HNF-3 beta) gene expression ([3]; 48 hrs): +++ (detectable at less than 35 cycles by RT-PCR with SE less than 0.9)
Insulin gene expression ([3]; 48 hrs): nd (not detectable at >40 cycles by RT-PCR)
Pdx-1 gene expression ([3]; 48 hrs): nd (not detectable at >40 cycles by RT-PCR)
sox17 gene expression ([3]; 48 hrs): +++ (detectable at less than 35 cycles by RT-PCR with SE less than 0.9)
Gata1 gene expression ([3]; 72 hrs): nd (not detectable at >40 cycles by RT-PCR)
HNF (HNF-3 beta) gene expression ([3]; 72 hrs): + (detectable between 35 and 40 cycles by RT-PCR)
Insulin gene expression ([3]; 72 hrs): + (detectable between 35 and 40 cycles by RT-PCR)
Pdx-1 gene expression ([3]; 72 hrs): nd (not detectable at >40 cycles by RT-PCR)
sox17 gene expression ([3]; 72 hrs): +++ (detectable at less than 35 cycles by RT-PCR with SE less than 0.9)
Gata1 gene expression ([3]; 96 hrs): nd (not detectable at >40 cycles by RT-PCR)
HNF (HNF-3 beta) gene expression ([3]; 96 hrs): + (detectable between 35 and 40 cycles by RT-PCR)
Insulin gene expression ([3]; 96 hrs): ++ (detectable at less than 35 cycles by RT-PCR with SE greater than 0.9)
Pdx-1 gene expression ([3]; 96 hrs): nd (not detectable at >40 cycles by RT-PCR)
sox17 gene expression ([3]; 96 hrs): +++ (detectable at less than 35 cycles by RT-PCR with SE less than 0.9)
Gata1 gene expression ([3]; 120 hrs): nd (not detectable at >40 cycles by RT-PCR)
HNF (HNF-3 beta) gene expression ([3]; 120 hrs): + (detectable between 35 and 40 cycles by RT-PCR)
Insulin gene expression ([3]; 120 hrs): ++ (detectable at less than 35 cycles by RT-PCR with SE greater than 0.9)
Pdx-1 gene expression ([3]; 120 hrs): nd (not detectable at >40 cycles by RT-PCR)
sox17 gene expression ([3]; 120 hrs): +++ (detectable at less than 35 cycles by RT-PCR with SE less than 0.9)
Gata1 gene expression ([3]; 144 hrs): nd (not detectable at >40 cycles by RT-PCR)
HNF (HNF-3 beta) gene expression ([3]; 144 hrs): + (detectable between 35 and 40 cycles by RT-PCR)
Insulin gene expression ([3]; 144 hrs): ++ (detectable at less than 35 cycles by RT-PCR with SE greater than 0.9)
Pdx-1 gene expression ([3]; 144 hrs): nd (not detectable at >40 cycles by RT-PCR)
sox17 gene expression ([3]; 144 hrs): +++ (detectable at less than 35 cycles by RT-PCR with SE less than 0.9)
